The values below come from publication PMC5358776, “Insight into the mechanism of action of temporin-SHa, a new broad-spectrum antiparasitic and antibacterial agent” (PLoS ONE, 2017).

Data set [1] concerns Gram-negative and Gram-positive bacteria and yeasts/fungi. Briefly: MIC, whole panel of strains. It counts as cell-based. The conditions noted are these: for MIC: against all strains.
Data set [2] has as its system E. coli ATCC 25922. The conditions noted are these: ATCC 25922.
Experimental: (§2) Listeria ivanovii Li4pVS2 (kindly provided by Jean-Marc Berjeaud, Université de Poitiers, France), and Streptococcus pyogenes ATCC 19615 (ATCC) were cultured in brain heart infusion (BHI, Sigma-Aldrich) medium under the same conditions.
(§3) Activity against bacteria and yeasts was assessed with a liquid growth inhibition assay performed in 96-well microtitration plates, according to a previously described protocol [14], using mid-logarithmic phase cultures diluted in Mueller-Hinton (MH, Dominique Dutscher) broth (LB broth for E. faecalis strain and YPD medium for yeasts/fungi) to an A630 value of 0.01 (10^6 cfu/ml) and 2-fold serial dilutions of synthetic temporin (200–1 μM, final concentrations). The minimal inhibitory concentration (MIC) was determined as the mean value of three independent experiments, each performed in triplicate with negative (H2O) and positive (0.7% formaldehyde) controls.
Data set [3] deals with E. coli ML-35p. The conditions noted are these: MH broth, 10^6 cfu/ml; mean of 3 independent experiments in triplicate.
Experimental: as §2, §3
Data set [4] has as its system P. aeruginosa ATCC 27853. The conditions noted are these: ATCC 27853.
Experimental: as §2, §3
Data set [5] has as its system S. enterica (serotype Enteritidis). The conditions noted are these: serotype Enteritidis.
Experimental: as §3
The test system of data set [6] is A. baumannii ATCC 19606. The conditions noted are these: ATCC 19606.
Experimental: as §3
The test system of data set [7] is K. pneumoniae ATCC 13883. The conditions noted are these: ATCC 13883.
Experimental: as §3
Data set [8] concerns S. aureus ATCC 25923. The conditions noted are these: ATCC 25923.
Experimental: as §3
The subject of data set [9] is S. aureus ST1065. The conditions noted are these: ST1065.
Experimental: as §3
The test system of data set [10] is L. ivanovii.
Experimental: as §2, §3
The test system of data set [11] is E. faecalis ATCC 29212. The conditions noted are these: ATCC 29212.
Experimental: as §2, §3
The test system of data set [12] is C. albicans ATCC 90028. The conditions noted are these: ATCC 90028, 96 h.
Experimental: (§4) Candida albicans ATCC 90028, Candida parapsilosis ATCC 22019 (ATCC), and Saccharomyces cerevisiae (laboratory collection) were cultured in yeast peptone dextrose (YPD, Sigma-Aldrich) medium at 30°C.
(§5) The minimal inhibitory concentration (MIC) was determined as the mean value of three independent experiments, each performed in triplicate with negative (H2O) and positive (0.7% formaldehyde) controls.
Data set [13] concerns C. parapsilosis ATCC 22019. The conditions noted are these: ATCC 22019, 96 h.
Experimental: as §4, §5
For data set [14], the system named is S. cerevisiae. The conditions noted are these: 96 h.
Experimental: as §4, §5
Data set [15] deals with Rat erythrocytes. The conditions noted are these: 1 h.
Experimental: (§6) Hemolytic assays were also performed using erythrocytes obtained from fresh blood samples of Wistar male rats (Charles River Laboratories, France). The hemolytic activity was measured by incubating the peptide (1–200 μM, final concentrations) with erythrocytes (2 x 10^7 cells) in PBS (100 μl) for 1 h at 37°C, as previously described [23]. A parallel incubation in the presence of 0.1% (v/v) Triton-X100 was carried out to determine the absorbance associated with 100% hemolysis. […] For THP-1-derived macrophages, viability was determined by Trypan blue staining after incubation with peptide (1–100 μM, final concentrations). LC50 (average concentration of the peptide producing 50% cell lysis) and IC50 values were determined with GraphPad Prism 6.0 software and correspond to the mean obtained from three independent experiments carried out with three (erythrocytes, THP-1 monocytes, HepG2 and HFF cells) or six replicates (THP-1-derived macrophages).
(§7) IC50 or LC50 values were determined for the different human cells mentioned above in the cytotoxicity assays.
Data set [16] concerns S. aureus ATCC 43300. The conditions noted are these: strain resistant to methicillin and oxacillin; MH broth, 10^6 cfu/ml; mean of 3 independent experiments in triplicate.
Experimental: as §2, §3
The subject of data set [17] is S. aureus ATCC BAA-44. The conditions noted are these: ATCC BAA-44.
Data set [18] concerns S. pyogenes ATCC 19615. The conditions noted are these: ATCC 19615.
Experimental: as §2, §3
Data set [19] has as its system Gram-negative bacteria. The conditions noted are these: 6 Gram-negative strains of Table 3.
The test system of data set [20] is Gram-positive bacteria. The conditions noted are these: 7 Gram-positive strains of Table 3.
Data set [21] concerns Yeasts/fungi.
Data set [22] has as its system L. infantum (antimony resistant) promastigotes. The conditions noted are these: antimony-resistant parasites.
Experimental: (§8) Antiparasitic activity was evaluated against trypanosomatids, such as Leishmania and Trypanosoma. Antileishmanial activity was determined either by a luminescence-based assay (L. infantum, L. major and L. braziliensis) or by cell counting (FACSCalibur flow cytometer, Becton-Dickinson Biosciences, Woburn, MA, USA) after staining with propidium iodide (L. tropica and L. amazonensis), as previously described [23], using promastigotes or axenic amastigotes (1.25 x 10^6 parasites/ml) in mid-log phase and 5-fold serial dilutions of synthetic temporin (50–3.1 μM, final concentrations). Antitrypanosomal activity against T. brucei gambiense and T. cruzi was assessed by cell counting, similar to the L. tropica and L. amazonensis analysis, after incubation of the parasites (96 h for T. brucei gambiense and 120 h for T. cruzi) with the synthetic temporin, as previously described [23]. The half maximal inhibitory concentration (IC50) value was determined with GraphPad Prism 6.0 software (GraphPad Software, La Jolla, CA, USA) using a sigmoidal dose response (variable slope) curve fitting equation. The results are expressed as the means of three independent experiments performed in triplicate (luminescence-based assays) or in duplicate (cell counting-based assays).
Data set [23] deals with L. major promastigotes. The conditions noted are these: promastigotes, 96 h.
Experimental: (§9) L. infantum axenic amastigotes were differentiated from promastigotes in MAA medium (supplemented with 20% FCS) and were grown at 37°C in 5% CO2 [23].
(§10) Antiparasitic activity was evaluated against trypanosomatids, such as Leishmania and Trypanosoma. Antileishmanial activity was determined either by a luminescence-based assay (L. infantum, L. major and L. braziliensis) or by cell counting (FACSCalibur flow cytometer, Becton-Dickinson Biosciences, Woburn, MA, USA) after staining with propidium iodide (L. tropica and L. amazonensis), as previously described [23], using promastigotes or axenic amastigotes (1.25 x 10^6 parasites/ml) in mid-log phase and 5-fold serial dilutions of synthetic temporin (50–3.1 μM, final concentrations). […] The half maximal inhibitory concentration (IC50) value was determined with GraphPad Prism 6.0 software (GraphPad Software, La Jolla, CA, USA) using a sigmoidal dose response (variable slope) curve fitting equation. The results are expressed as the means of three independent experiments performed in triplicate (luminescence-based assays) or in duplicate (cell counting-based assays).
The test system of data set [24] is L. braziliensis promastigotes. The conditions noted are these: 96 h.
Experimental: as §9, §10
For data set [25], the system named is L. amazonensis promastigotes. The conditions noted are these: promastigotes, 96 h.
Experimental: as §9, §10
The subject of data set [26] is L. infantum (axenic) amastigotes. The conditions noted are these: axenic) amastigotes, 96 h.
Experimental: as §9, §10
The subject of data set [27] is L. infantum (intramacrophagic) amastigotes in THP-1-derived macrophages. The conditions noted are these: intramacrophagic) amastigotes in THP-1-derived macrophages, 24 h.
Experimental: Leishmania infantum (strain MHOM/MA/67/ITMAP-263), Leishmania major (strain MHOM/SU/73/5-ASKH), Leishmania tropica (strain MHOM/SU/74/SAFK27), Leishmania amazonensis (strain MHOM/BR/73/M2269), and Leishmania braziliensis (strain MHOM/BR/75/M2904) promastigotes (kindly provided by Francine Pratlong, Centre National de Référence des Leishmania, Montpellier, France) were cultured at 26°C in SDM-79 medium supplemented with 10% fetal calf serum (FCS, Gibco) [23]. […] L. infantum-infected human macrophages were obtained from human THP-1 monocytes, as previously described [23, 78].
Intramacrophagic leishmanicidal activity of the peptides was assessed by incubating L. infantum-infected human macrophages with 2-fold serial dilutions of peptide (50–2.5 μM, final concentrations) for 4 days, as previously described [23]. THP-1-derived macrophages were infected with promastigotes from late log phase at a density of 5 x 10^5 cells/well (ratio 10:1) in RPMI medium for 24 h at 37°C with 5% CO2. […] The results are expressed as the means of two experiments performed with six replicates.
Data set [28] deals with T. brucei gambiense. The conditions noted are these: gambiense, 96 h.
Experimental: as §8
Data set [29] deals with T. cruzi epimastigotes. The conditions noted are these: epimastigotes, 120 h.
Experimental: as §8
The test system of data set [30] is Human erythrocytes. The conditions noted are these: 1 h.
Experimental: as §6, §7
Data set [31] has as its system Human THP-1 monocytes. The conditions noted are these: 72 h.
Data set [32] has as its system Human HepG2. The conditions noted are these: MTT, 72 h, 37°C, 50–600 μM; mean of 3 independent experiments in triplicate.
The subject of data set [33] is Human fibroblasts (HFF). The conditions noted are these: 72 h.
For data set [34], the system named is promastigotes of several species of Leishmania. The conditions noted are these: 96 h.
Experimental: as §8
In data set [35] the test system is Human THP-1-derived macrophages. Briefly: Cytotoxicity, Trypan blue staining. The conditions noted are these: 1–100 μM, mean of 3 independent experiments, six replicates.
Experimental: as §6, §7
Data set [36] relates to L. infantum promastigotes. Nature of the data set: DNA fragmentation, TUNEL assay. The conditions noted are these: 50 μM, 48 h. The format is cell-based, Leishmania infantum. The protocol:
(§1) Mid-log phase L. infantum promastigotes were synchronized at the G1/S border by treating with 10 mM hydroxyurea for 24 h at 26°C [81]. […] Then 400 μl of different concentrations of peptide (12.5, 25 and 50 μM, final concentrations) were added to 1.6 ml of the cell suspension. After 48 h incubation, samples were split into two volumes (2 x 1 ml) to analyze the cell cycle and DNA fragmentation. For cell cycle analysis, the first sample (1 ml) was centrifuged (1,000 x g, 10 min) and 100 μl of HBSS was added to the pellet. Then, 900 μl of cold 70% ethanol was gently added drop-wise for cell fixation. After an overnight incubation at -20°C, cells were washed (16,000 x g, 10 min, 4°C) with HBSS and resuspended in 1 ml of HBSS containing 100 μg of RNase A (Sigma-Aldrich) and 5 μg of propidium iodide. After 30 min of incubation at 37°C, samples were passed 5 times through a sterile plastic syringe fitted with a 27 gauge needle and analyzed by flow cytometry (FACSCalibur). For DNA fragmentation analysis, a TUNEL assay was performed on the second 1 ml sample. […] DNA strand breaks were detected by the addition of biotinylated nucleotides to the free 3′-hydroxyl ends of the DNA fragments using TdT (terminal deoxynucleotidyl transferase) and tagged with a streptavidin-FITC conjugate for subsequent detection by flow cytometry. […]

The subject of data set [37] is L. infantum promastigotes. Briefly: Cell cycle analysis, sub-G1 phase. The format is cell-based, Leishmania infantum. The conditions noted are these: 50 μM, 48 h. The protocol: as §1
Data set [38] deals with E. coli ATCC 25922. Nature of the data set: Multipassage resistance selection. The conditions noted are these: for fold increase in the MIC against control bacteria at the end of the selection: lineages grown without antimicrobial agent, passage 55. The format is cell-based, Escherichia coli.
For data set [39], the system named is L. infantum promastigotes. The conditions noted are these: promastigotes, 96 h.
Experimental: as §9, §10

In brackets after ≈: the same amount, converted by molar mass. Where two headings read alike, the source gives them in different places. Where no end group is shown, it is not given here.

Usually MIC stands for the lowest concentration that inhibits growth of the organism. Broadly, the LC50 is the concentration lethal to half of the exposed cells or organisms. Read a low LC50 as a more lethal substance. For orientation: IC50 means the concentration that gives 50% inhibition.

“FAKGIAGMAGKLF-NH2 [[A^2,6,9, K^3]SHa, [A^2,6,9, K^3]temporin-SHa]”: the MIC in data set [1], in [2], in data set [3], in [4], in data set [5] and in data set [6] was greater than 200 µM throughout. For the same compound, the MIC in data set [7], in data set [8], in data set [9], in [10], in [11] and in data set [12] was greater than 200 µM each time. Also, the MIC in data set [13] and in data set [14] was greater than 200 µM in each case. This compound came in with an LC50 in data set [15] greater than 200 µM.

Take “FLKGIVGMLGKLF-NH2 [[K^3]SHa, [K^3]temporin-SHa]”: the “MIC (range over strains)” value in [1] (all the tested bacteria) lay within 1 to 6 µM; in [21] (yeasts/fungi), 3 to 25 µM. The MIC in [2] was found to be 3 µM; in data set [3], 3 µM; in data set [4] it was 6 µM; in data set [5] it was 6 µM; in [6], 3 µM; in data set [7] it was 3 µM. Also, the minimum inhibitory concentration (MIC) in [8] amounted to 3 µM; in [9], 3 µM; in data set [16] it was 3 µM; in [17], 3 µM; in data set [18], 1 µM; in data set [10], 3 µM. Further, the MIC in [11] was found to be 6 µM; in data set [12], 6 µM; in data set [13] it was 25 µM; in [14], 3 µM. In addition, the “MICGM (geometric mean of the MIC values)” value came out at 3.8 µM in data set [19], 2.8 µM in data set [20] and 7.7 µM in [21] (3 yeast/fungal strains of Table 3). For the same compound, the IC50 amounted to 9 µM in data set [22]; 10 µM in [23]; 5 µM in data set [24]; 8 µM in data set [25]; 20 µM in data set [26]; 5 µM in [27]. Further, the IC50 is 16 µM in [28]; 10 µM in [29]; 48 µM in data set [31]; 358 µM in data set [32]; greater than 100 µM in [33]; 5 to 10 µM in data set [34]. Besides, the values for the 50% lethal concentration (LC50) in [15], in [30] and in [35] were 26 µM, 50 µM and 55 µM, respectively.

Consider `CCCCCCCCCCCCCCCCOP(=O)([O-])OCC[N+](C)(C)C` [Miltefosine, hexadecylphosphocholine], for which the “DNA fragmentation (FITC-positive cells)” value in data set [36] is reported as “approximately 65%”. Further, the “Sub-G1 phase (% of cells)” value in data set [37] is 29.1 % of cells; in data set [37] (listed as miltefosine), 29 % of cells.

In the case of D-temporin-SHa [D-SHa], the “fold increase in the MIC against control bacteria at the end of the selection” value in [38] is on record as roughly 2 fold.

On to `CC1(C)S[C@@H]2[C@H](NC(=O)[C@H](N)c3ccccc3)C(=O)N2[C@H]1C(=O)O` [ampicillin], for which the minimal inhibitory concentration (MIC) in data set [38] (Escherichia coli, ATCC25922, read-out: MIC (initial, before selection)) stood at 12.5 µM (≈ 4.37 µg/mL). Also, the “fold increase in the MIC against adapted E. coli lineages” value in data set [38] (lineages adapted from MIC/16 to MIC, 55 passages) was found to be 6 fold. Also, the “fold increase in the MIC against control bacteria at the end of the selection” value in data set [38] worked out at 4 fold.

For the compound “FASGIAGMAGKLF-NH2 [[A^2,6,9]SHa, [A^2,6,9]temporin-SHa]”, the minimal inhibitory concentration (MIC) in data set [1], in [2], in [3], in [4], in data set [5] and in [6] was greater than 200 µM in each case. Besides, the MIC in data set [7], in [8], in [9], in data set [18], in data set [10] and in [11] was greater than 200 µM throughout. In addition, the MIC in [12], in data set [13] and in [14] was greater than 200 µM each time. Moreover, the median lethal concentration (LC50) is greater than 200 µM in data set [15] and greater than 100 µM in [30]. The values for the IC50 in data set [31] and in data set [32] were greater than 60 µM and greater than 600 µM, respectively.

Regarding “GLWSKIKEVGKEAAKAAAKAAGKAALGAVSEAV-NH2 (C-terminus assumed) [dermaseptin B2, reference compound]”, the IC50 is 2.5 µM in data set [39] and roughly 7 µM in data set [31].
